Values of other authors as cited in patent US9238024B2, “Methods for improving health in canines” (Quality IP Holdings, LLC, priority 2012, dated 2016).

Assays:
canines [1] = system: canines
canines [2] = system: canines; remark: listed apart in the source

CC(C)(N)C(=O)N[C@H](COCc1ccccc1)C(=O)N1CCC2(CC1)CN(S(C)(=O)=O)c1ccccc12 [MK-0677]
levels of serum insulin-like growth factor-I (canines [1]; canines): elevates
size and strength of the quadriceps muscle (canines [1]; canines during remobilization): increases

growth hormone
new bone formation (canines [2]; adult canines of both sexes, exogenous growth hormone): marked increase
bone growth factors and fracture healing (canines [2]; canines): enhances
quantity of protein in the blood plasma (canines [2]; canines given growth hormone): increased
